Drawing on PubChem BioAssay AID1259407 (Chemical Carcinogenesis Research Information System (CCRIS), 2018), this text covers mutagenic call for 5 molecules.

The test system of the series is CCRIS mutagenicity, Ames/micronucleus/aberration tests. The series is described as follows: CCRIS mutagenicity studies.
Setting [1] is: Test System: AMES SALMONELLA TYPHIMURIUM, Strain/Indicator: TA98, Metabolic Activation: NONE, Method: PREINCUBATION
Setting [2] is: Test System: AMES SALMONELLA TYPHIMURIUM, Strain/Indicator: TA100, Metabolic Activation: NONE, Method: PREINCUBATION
Setting [3] is: Test System: AMES SALMONELLA TYPHIMURIUM, Strain/Indicator: TA98, Metabolic Activation: RAT LIVER S-9, PHENOBARBITAL AND BETA-NAPHTHOFLAVONE, Method: PREINCUBATION
Setting [4] is: Test System: AMES SALMONELLA TYPHIMURIUM, Strain/Indicator: TA100, Metabolic Activation: RAT LIVER S-9, PHENOBARBITAL AND BETA-NAPHTHOFLAVONE, Method: PREINCUBATION
Where [5] appears, read: Test System: AMES SALMONELLA TYPHIMURIUM, Strain/Indicator: TA1535, Metabolic Activation: NONE, Method: PREINCUBATION
The mark [6] stands for this setting: Test System: AMES SALMONELLA TYPHIMURIUM, Strain/Indicator: TA1535, Metabolic Activation: RAT LIVER S-9, PHENOBARBITAL AND BETA-NAPHTHOFLAVONE, Method: PREINCUBATION
The mark [7] stands for this setting: Test System: AMES SALMONELLA TYPHIMURIUM, Strain/Indicator: TA1537, Metabolic Activation: NONE, Method: PREINCUBATION
The mark [8] stands for this setting: Test System: AMES SALMONELLA TYPHIMURIUM, Strain/Indicator: TA1537, Metabolic Activation: RAT LIVER S-9, PHENOBARBITAL AND BETA-NAPHTHOFLAVONE, Method: PREINCUBATION

Activity calls are given as the source filed them. No rule for the calls is given here.

On to `O=C(O)/C=C\C(=O)O`, for which the mutagenic call (Test System: AMES SALMONELLA TYPHIMURIUM, Strain/Indicator: TA97, Metabolic Activation: NONE, Method: PREINCUBATION) was “inactive; negative”; the mutagenic call (Test System: AMES SALMONELLA TYPHIMURIUM, Strain/Indicator: TA97, Metabolic Activation: RAT, LIVER, S-9, PHENOBARBITAL AND 5,6-BENZOFLAVONE, Method: PREINCUBATION) was “inactive; negative”; the mutagenic call under setting [1] is “inactive; negative”; the mutagenic call (Test System: AMES SALMONELLA TYPHIMURIUM, Strain/Indicator: TA98, Metabolic Activation: NONE, Method: STANDARD PLATE) is “inactive; negative”; the mutagenic call (Test System: AMES SALMONELLA TYPHIMURIUM, Strain/Indicator: TA98, Metabolic Activation: RAT, LIVER, S-9, AROCLOR 1254, Method: STANDARD PLATE) was “inactive; negative”; the mutagenic call (Test System: AMES SALMONELLA TYPHIMURIUM, Strain/Indicator: TA98, Metabolic Activation: RAT, LIVER, S-9, PHENOBARBITAL AND 5,6-BENZOFLAVONE, Method: PREINCUBATION) is “inactive; negative”. The mutagenic call runs as follows: under setting [2], “inactive; negative”; (Test System: AMES SALMONELLA TYPHIMURIUM, Strain/Indicator: TA100, Metabolic Activation: NONE, Method: STANDARD PLATE) “inactive; negative”; (Test System: AMES SALMONELLA TYPHIMURIUM, Strain/Indicator: TA100, Metabolic Activation: RAT, LIVER, S-9, AROCLOR 1254, Method: STANDARD PLATE) “inactive; negative”; (Test System: AMES SALMONELLA TYPHIMURIUM, Strain/Indicator: TA100, Metabolic Activation: RAT, LIVER, S-9, PHENOBARBITAL AND 5,6-BENZOFLAVONE, Method: PREINCUBATION) “inactive; negative”; (Test System: AMES SALMONELLA TYPHIMURIUM, Strain/Indicator: TA102, Metabolic Activation: NONE, Method: PREINCUBATION) “inactive; negative”; (Test System: AMES SALMONELLA TYPHIMURIUM, Strain/Indicator: TA102, Metabolic Activation: RAT, LIVER, S-9, PHENOBARBITAL AND 5,6-BENZOFLAVONE, Method: PREINCUBATION) “inactive; negative”. For the same molecule, the mutagenic call reads like this: (Test System: AMES SALMONELLA TYPHIMURIUM, Strain/Indicator: TA104, Metabolic Activation: NONE, Method: PREINCUBATION) “inactive; negative”; (Test System: AMES SALMONELLA TYPHIMURIUM, Strain/Indicator: TA104, Metabolic Activation: RAT, LIVER, S-9, PHENOBARBITAL AND 5,6-BENZOFLAVONE, Method: PREINCUBATION) “inactive; negative”; (Test System: AMES SALMONELLA TYPHIMURIUM, Strain/Indicator: TA1535, Metabolic Activation: NONE, Method: STANDARD PLATE) “inactive; negative”; (Test System: AMES SALMONELLA TYPHIMURIUM, Strain/Indicator: TA1535, Metabolic Activation: RAT, LIVER, S-9, AROCLOR 1254, Method: STANDARD PLATE) “inactive; negative”; (Test System: AMES SALMONELLA TYPHIMURIUM, Strain/Indicator: TA1537, Metabolic Activation: NONE, Method: STANDARD PLATE) “inactive; negative”; (Test System: AMES SALMONELLA TYPHIMURIUM, Strain/Indicator: TA1537, Metabolic Activation: RAT, LIVER, S-9, AROCLOR 1254, Method: STANDARD PLATE) “inactive; negative”. Further, the mutagenic call by setting is: (Test System: AMES SALMONELLA TYPHIMURIUM, Strain/Indicator: TA1538, Metabolic Activation: NONE, Method: STANDARD PLATE) “inactive; negative”; (Test System: AMES SALMONELLA TYPHIMURIUM, Strain/Indicator: TA1538, Metabolic Activation: RAT, LIVER, S-9, AROCLOR 1254, Method: STANDARD PLATE) “inactive; negative”.

With `CC(CO)(CO)CO`, the mutagenic call runs as follows: under setting [1], “inactive; negative”; under setting [3], “inactive; negative”; under setting [2], “inactive; negative”; under setting [4], “inactive; negative”; under setting [5], “inactive; negative”; under setting [6], “inactive; negative”. Also, the mutagenic call by setting is: under setting [7], “inactive; negative”; under setting [8], “inactive; negative”; (Test System: E.COLI, Strain/Indicator: WP2UVRA/PKM101, Metabolic Activation: NONE, Method: PREINCUBATION) “inactive; negative”; (Test System: E.COLI, Strain/Indicator: WP2UVRA/PKM101, Metabolic Activation: RAT LIVER S-9, PHENOBARBITAL AND BETA-NAPHTHOFLAVONE, Method: PREINCUBATION) “inactive; negative”.

Turning to `COc1ccc(O)c2c(=O)c3c(OC)cc4c(c3oc12)[C@@H]1C=CO[C@@H]1O4`, the mutagenic call (Test System: AMES SALMONELLA TYPHIMURIUM, Strain/Indicator: TA98, Metabolic Activation: RAT, LIVER, S-9, PHENOBARBITAL, Method: STANDARD PLATE) is “inactive; negative” and the mutagenic call (Test System: AMES SALMONELLA TYPHIMURIUM, Strain/Indicator: TA100, Metabolic Activation: RAT, LIVER, S-9, PHENOBARBITAL, Method: STANDARD PLATE) was “active; positive”.

In the case of `Cc1nc(N)nc(N)n1`, the mutagenic call reads like this: under setting [1], “inactive; negative”; under setting [3], “inactive; negative”; under setting [2], “inactive; negative”; under setting [4], “inactive; negative”; under setting [5], “inactive; negative”; under setting [6], “inactive; negative”. Further, the mutagenic call under setting [7] is “inactive; negative”; the mutagenic call under setting [8] is “inactive; negative”; the mutagenic call (Test System: AMES SALMONELLA TYPHIMURIUM, Strain/Indicator: TA1538, Metabolic Activation: NONE, Method: PREINCUBATION) was “inactive; negative”; the mutagenic call (Test System: AMES SALMONELLA TYPHIMURIUM, Strain/Indicator: TA1538, Metabolic Activation: RAT LIVER S-9, PHENOBARBITAL AND BETA-NAPHTHOFLAVONE, Method: PREINCUBATION) is “inactive; negative”; the mutagenic call (Test System: E.COLI, Strain/Indicator: WP2UVRA, Metabolic Activation: NONE, Method: PREINCUBATION) was “inactive; negative”; the mutagenic call (Test System: E.COLI, Strain/Indicator: WP2UVRA, Metabolic Activation: RAT LIVER S-9, PHENOBARBITAL AND BETA-NAPHTHOFLAVONE, Method: PREINCUBATION) is “inactive; negative”.

Take `CC(C)(C)c1ccc(C(=O)O)cc1`: the mutagenic call is, setting by setting: (Test System: Ames Salmonella typhimurium, Strain/Indicator: TA98, Metabolic Activation: None, Method: Preincubation) “inactive; negative”; (Test System: Ames Salmonella typhimurium, Strain/Indicator: TA98, Metabolic Activation: Rat, Liver, S9, Sodium phenobarbital and 5,6-benzoflavone (10%), Method: Preincubation) “inactive; negative”; (Test System: Ames Salmonella typhimurium, Strain/Indicator: TA100, Metabolic Activation: None, Method: Preincubation) “inactive; negative”; (Test System: Ames Salmonella typhimurium, Strain/Indicator: TA100, Metabolic Activation: Rat, Liver, S9, Sodium phenobarbital and 5,6-benzoflavone (10%), Method: Preincubation) “inactive; negative”; (Test System: Ames Salmonella typhimurium, Strain/Indicator: TA1535, Metabolic Activation: None, Method: Preincubation) “inactive; negative”; (Test System: Ames Salmonella typhimurium, Strain/Indicator: TA1535, Metabolic Activation: Rat, Liver, S9, Sodium phenobarbital and 5,6-benzoflavone (10%), Method: Preincubation) “inactive; negative”. The mutagenic call was “inactive; negative” (Test System: Ames Salmonella typhimurium, Strain/Indicator: TA1537, Metabolic Activation: None, Method: Preincubation); “inactive; negative” (Test System: Ames Salmonella typhimurium, Strain/Indicator: TA1537, Metabolic Activation: Rat, Liver, S9, Sodium phenobarbital and 5,6-benzoflavone (10%), Method: Preincubation); “inactive; negative” (Test System: E. coli, Strain/Indicator: WP2uvrA/pKM101, Metabolic Activation: None, Method: Preincubation); “inactive; negative” (Test System: E. coli, Strain/Indicator: WP2uvrA/pKM101, Metabolic Activation: Rat, Liver, S9, Sodium phenobarbital and 5,6-benzoflavone (10%), Method: Preincubation).
